Source: patent US8501242B2, “Methods and compositions for treating neoplasia” (University of Florida Research Foundation, priority 2009, dated 2013)

Experiments:
[1] = target: human thymidylate synthase (Homo sapiens, UniProt P04818); test: spectrophotometric assay of human thymidylate synthase activity; type: biochemical; conditions: for Ki: Table 2, kinetic parameters of TS in presence of selected compounds
Protocol: A spectrophotometric assay is used to test compounds for their inhibitory activity against human thymidylate synthase activity. This assay is a modification of the assay of Wahba, A. J., and Friedkin, M. (1961). Direct spectrophotometric evidence for the oxidation of tetrahydrofolate during the enzymatic synthesis of thymidylate (J. Biol. Chem. 236, PC11-12).
In the spectrophotometric assay, human thymidylate synthase is preincubated with deoxyuridine monophosphate (and inhibitors) in 96-well plates for 0-5 minutes at room temperature and fresh 5,10-methylene tetrahydrofolate (THF) is added to the mixture immediately before the reaction to yield a volume of 100 μl. 5,10-methylene tetrahydrofolate is prepared fresh prior to every experiment by dissolving THF in 0.26 M formaldehyde, 80 mM dithiothreitol, and 50 mM Tris HCI (pH 6.8/7.0). X-ray crystallography is then utilized to identify any binding site in human thymidylate synthase for an inhibitor and also to characterize its mechanism of action.
The 40 highest scoring compounds in the above-mentioned screening assay were obtained and tested for their abilities to inhibit the biochemical activity of human thymidylate synthase. Four compounds were inhibitory and preliminary studies show the enzyme mechanism to be non-competitive (i.e. through modulating or interfering with association among human thymidylate synthase monomers).

HeLa = test: cell proliferation experiments, combination with 5-FU; type: cell-based, human; conditions: combination of CNX treatment with 5-FU versus 5FU alone
Source text: (§1) The combination of certain compounds (e.g., CNX) with certain anti-cancer compounds (e.g., 5-FU) can produce synergistic anticancer effects.

HT29 = test: as above; type: cell-based, human; conditions: combination of CNX treatment with 5-FU versus 5FU alone
Source text: as §1

Chain of human thymidylate synthase (P04818 whole entry): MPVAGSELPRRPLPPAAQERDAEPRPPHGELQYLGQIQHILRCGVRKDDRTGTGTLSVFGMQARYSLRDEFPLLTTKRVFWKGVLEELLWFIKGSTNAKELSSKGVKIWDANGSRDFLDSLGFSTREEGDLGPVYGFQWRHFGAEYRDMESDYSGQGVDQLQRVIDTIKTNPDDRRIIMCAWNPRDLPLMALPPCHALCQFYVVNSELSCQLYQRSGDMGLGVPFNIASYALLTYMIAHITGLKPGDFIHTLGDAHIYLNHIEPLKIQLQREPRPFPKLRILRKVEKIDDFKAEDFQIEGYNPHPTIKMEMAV

Row | Compound | Ki [1] [µM] | also measured
1 | O=c1[nH]cc(F)c(=O)[nH]1 [5-FU, 5-fluorouracil, reference compound] | 56.7 | –
2 | O=C(O)C(S)C(S)C(=O)O (stereo not drawn) [NSC16867, 2,3-Dimercaptosuccinic acid] | 45.5 | –
3 | CCN(CC)S(=O)(=O)c1ccc(C(=O)O)cc1 [NSC49467, P-(Diethylsulfamoyl)benzoic acid] | 177 | –
4 | CC(=O)NC(CS)C(=O)O (stereo not drawn) [NSC111180, 2-acetamido-3-sulfanylpropanoic acid] | 602 | –
5 | CCn1nc(C(=O)O)c(=O)c2cc3c(cc21)OCO3 [NSC304467, 1-Ethyl-4-oxo-1,4-dihydro[1,3]dioxolo[4,5-g]cinnoline-3-carboxylic acid] | 0.32 | inhibitory effect on cell proliferation (HeLa): greater inhibitory effects than 5FU alone; inhibitory effect on cell proliferation (HT29): greater inhibitory effects than 5FU alone; enzyme mechanism of TS inhibition [1]: non-competitive; inhibiting TS activity (in words) [1]: potent

Further compounds by falling Ki [1], results first:

Row | Ki [1] [µM] | Compound | also measured
6 | 29.8 | O=C(O)Cn1cc(I)c(=O)c(I)c1 [NSC60718, (3,5-diiodo-4-oxo-1(4H)-pyridinyl)acetic acid] | –
7 | 5.4 | CC(=O)Nc1c(I)cc(I)c(C(=O)O)c1I [NSC141235, 3-(acetylamino)-2,4,6-triiodobenzoic acid.6-(methylamino)hexane-1,2,3,4,5-pentol] | –
8 | 2.12 | O=P(O)(O)OCC(O)CO (stereo not drawn) [NSC9231, 2,3-Dihydroxypropyl dihydrogen phosphate] | –
